How the values were obtained:
Assay type in all cases: in vivo
Kochia (Kochia scoparia) [1] = test: Test A preemergence; conditions: for Plant response rating, Kochia: 125 g ai/ha, preemergence, 0 to 100 scale (0 no effect, 100 complete control); for Kochia plant response rating (0 to 100 scale): Preemergence, 500 g ai/ha, 0 is no effect, 100 is complete control
Description: (§1) Seeds of plant species selected from barnyardgrass (Echinochloa crus-galli), Kochia (Kochia scoparia), ragweed (common ragweed, Ambrosia elatior), ryegrass, Italian (Italian ryegrass, Lolium multiflorum), crabgrass, large (Digitaria sanguinalis), giant foxtail (Setaria faberii), green foxtail (Setaria viridis), morningglory (Ipomoea spp.), pigweed (Amaranthus retroflexus), velvetleaf (Abutilon theophrasti), wheat (Triticum aestivum), and corn (Zea mays) were planted into a blend of loam soil and sand and treated preemergence with a directed soil spray using test chemicals formulated in anon-phytotoxic solvent mixture which included a surfactant.
(§2) At the same time, plants selected from these crop and weed species and also blackgrass (Alopecurus myosuroides), and Galium (catchweed bedstraw, Galium aparine) were planted in pots containing the same blend of loam soil and sand and treated with postemergence applications of test chemicals formulated in the same manner. Plants ranged in height from 2 to 10 cm and were in the one- to two-leaf stage for the postemergence treatment. Treated plants and untreated controls were maintained in a greenhouse for approximately 10 d, after which time all treated plants were compared to untreated controls and visually evaluated for injury. Plant response ratings, summarized in Table A, are based on a 0 to 100 scale where 0 is no effect and 100 is complete control. A dash (-) response means no test result.

[2] = test system: barnyardgrass (Echinochloa crus-galli); test: Test A preemergence; conditions: for Plant response rating, Barnyardgrass: 125 g ai/ha, preemergence, 0 to 100 scale (0 no effect, 100 complete control); for Barnyardgrass plant response rating (0 to 100 scale): Preemergence, 500 g ai/ha, 0 is no effect, 100 is complete control
Description: as §1, §2

[3] = test system: giant foxtail (Setaria faberii); test: Test A preemergence; conditions: for Plant response rating, Foxtail, Giant: 125 g ai/ha, preemergence, 0 to 100 scale (0 no effect, 100 complete control); for Foxtail, Giant plant response rating (0 to 100 scale): Preemergence, 500 g ai/ha, 0 is no effect, 100 is complete control
Description: as §1, §2

[4] = test system: pigweed (Amaranthus retroflexus); test: Test A preemergence; conditions: for Plant response rating, Pigweed: 125 g ai/ha, preemergence, 0 to 100 scale (0 no effect, 100 complete control); for Pigweed plant response rating (0 to 100 scale): Preemergence, 500 g ai/ha, 0 is no effect, 100 is complete control
Description: as §1, §2

[5] = test system: ragweed (common ragweed, Ambrosia elatior); test: Test A preemergence; conditions: for Plant response rating, Ragweed: 125 g ai/ha, preemergence, 0 to 100 scale (0 no effect, 100 complete control); for Ragweed plant response rating (0 to 100 scale): Preemergence, 500 g ai/ha, 0 is no effect, 100 is complete control
Description: as §1, §2

[6] = test system: ryegrass, Italian (Italian ryegrass, Lolium multiflorum); test: Test A preemergence; conditions: for Plant response rating, Ryegrass, Italian: 125 g ai/ha, preemergence, 0 to 100 scale (0 no effect, 100 complete control); for Ryegrass, Italian plant response rating (0 to 100 scale): Preemergence, 500 g ai/ha, 0 is no effect, 100 is complete control
Description: as §1, §2

[7] = test system: Galium (catchweed bedstraw, Galium aparine); test: Test A postemergence
Description: as §1, §2

Kochia (Kochia scoparia) [8] = test: Test A postemergence
Description: as §1, §2

[9] = test system: barnyardgrass (Echinochloa crus-galli); test: Test A postemergence
Description: as §1, §2

[10] = test system: blackgrass (Alopecurus myosuroides); test: Test A postemergence
Description: as §1, §2

corn (Zea mays) = test: Test A postemergence
Description: as §1, §2

[11] = test system: giant foxtail (Setaria faberii); test: Test A postemergence
Description: as §1, §2

[12] = test system: pigweed (Amaranthus retroflexus); test: Test A postemergence
Description: as §1, §2

[13] = test system: ragweed (common ragweed, Ambrosia elatior); test: Test A postemergence
Description: as §1, §2

[14] = test system: ryegrass, Italian (Italian ryegrass, Lolium multiflorum); test: Test A postemergence
Description: as §1, §2

[15] = test system: wheat (Triticum aestivum); test: Test A postemergence
Description: as §1, §2

[16] = test system: barnyardgrass (Echinochloa crus-galli); test: Test B flooded paddy test; conditions: Flood, 250 g ai/ha; 0 to 100 scale where 0 is no effect and 100 is complete control; 13 to 15 d
Protocol: (§3) Plant species in the flooded paddy test selected from rice (Oryra sativa), sedge, umbrella (small-flower umbrella sedge, Cyperus difformis), ducksalad (Heteranthera limosa), and barnyardgrass (Echinochloa crus-galli) were grown to the 2-leaf stage for testing. At time of treatment, test pots were flooded to 3 cm above the soil surface, treated by application of test compounds directly to the paddy water, and then maintained at that water depth for the duration of the test. Treated plants and controls were maintained in a greenhouse for 13 to 15 d, after which time all species were compared to controls and visually evaluated. Plant response ratings, summarized in Table B, are based on a scale of 0 to 100 where 0 is no effect and 100 is complete control. A dash (-) response means no test result.

[17] = test system: ducksalad (Heteranthera limosa); test: Test B flooded paddy test; conditions: Flood, 250 g ai/ha; 0 to 100 scale where 0 is no effect and 100 is complete control; 13 to 15 d
Protocol: as §3

rice (Oryra sativa) = test: Test B flooded paddy test; conditions: Flood, 250 g ai/ha; 0 to 100 scale where 0 is no effect and 100 is complete control; 13 to 15 d
Protocol: as §3

[18] = test system: sedge, umbrella (small-flower umbrella sedge, Cyperus difformis); test: Test B flooded paddy test; conditions: Flood, 250 g ai/ha; 0 to 100 scale where 0 is no effect and 100 is complete control; 13 to 15 d
Protocol: as §3

[19] = 500 g ai/ha, postemergence, 0 to 100 scale, 0 no effect, 100 complete control
[20] = Postemergence, 125 g ai/ha, visual injury, 0 to 100 scale (0 no effect, 100 complete control), approx. 10 d

Cc1ccc(C2CNC(=O)C2C(=O)Nc2ccc(F)cc2F)cc1F (racemic) [Compound 370]
Plant response rating, Kochia (Kochia (Kochia scoparia) [1]): 0 | Kochia plant response rating (0 to 100 scale) (Kochia (Kochia scoparia) [1]): 30 | Plant response rating, Barnyardgrass [2]: 90 | Barnyardgrass plant response rating (0 to 100 scale) [2]: 90 | Plant response rating, Foxtail, Giant [3]: 90 | Foxtail, Giant plant response rating (0 to 100 scale) [3]: 90 | Plant response rating, Pigweed [4]: 0 | Pigweed plant response rating (0 to 100 scale) [4]: 0 | Plant response rating, Ragweed [5]: 0 | Ragweed plant response rating (0 to 100 scale) [5]: 20 | Plant response rating, Ryegrass, Italian [6]: 0 | Ryegrass, Italian plant response rating (0 to 100 scale) [6]: 0 | Plant response rating, Galium [7, 19]: 60 | Plant response rating, Galium [7, 20]: 20 | Plant response rating, Kochia (Kochia (Kochia scoparia) [8]; [19]): 0 | Plant response rating, Kochia (Kochia (Kochia scoparia) [8]; [20]): 0 | Plant response rating, Barnyardgrass [9, 19]: 90 | Plant response rating, Barnyardgrass [9, 20]: 80 | Plant response rating, Blackgrass [10, 19]: 40 | Plant response rating, Blackgrass [10, 20]: 0 | Plant response rating, Corn (corn (Zea mays); [19]): 20 | Plant response rating, Corn (corn (Zea mays); [20]): 0 | Plant response rating, Foxtail, Giant [11, 19]: 70 | Plant response rating, Foxtail, Giant [11, 20]: 40 | Plant response rating, Pigweed [12, 19]: 0 | Plant response rating, Pigweed [12, 20]: 0 | Plant response rating, Ragweed [13, 19]: 50 | Plant response rating, Ragweed [13, 20]: 0 | Plant response rating, Ryegrass, Italian [14, 19]: 20 | Plant response rating, Ryegrass, Italian [14, 20]: 0 | Plant response rating, Wheat [15, 19]: 20 | Plant response rating, Wheat [15, 20]: 0 | Plant response rating, Barnyardgrass [16]: 60 | Plant response rating, Ducksalad [17]: 100 | Plant response rating, Rice (rice (Oryra sativa)): 0 | Plant response rating, Sedge, Umbrella [18]: 30

Cc1cccc(C2CNC(=O)C2C(=O)Nc2ccccc2F)c1 (racemic) [Compound 372]
Plant response rating, Kochia (Kochia (Kochia scoparia) [1]): 0 | Kochia plant response rating (0 to 100 scale) (Kochia (Kochia scoparia) [1]): 0 | Plant response rating, Barnyardgrass [2]: 90 | Barnyardgrass plant response rating (0 to 100 scale) [2]: 90 | Plant response rating, Foxtail, Giant [3]: 80 | Foxtail, Giant plant response rating (0 to 100 scale) [3]: 90 | Plant response rating, Pigweed [4]: 0 | Pigweed plant response rating (0 to 100 scale) [4]: 50 | Plant response rating, Ragweed [5]: 0 | Ragweed plant response rating (0 to 100 scale) [5]: 30 | Plant response rating, Ryegrass, Italian [6]: 0 | Ryegrass, Italian plant response rating (0 to 100 scale) [6]: 30 | Plant response rating, Galium [7, 19]: 20 | Plant response rating, Galium [7, 20]: 0 | Plant response rating, Kochia (Kochia (Kochia scoparia) [8]; [19]): 40 | Plant response rating, Kochia (Kochia (Kochia scoparia) [8]; [20]): 0 | Plant response rating, Barnyardgrass [9, 19]: 80 | Plant response rating, Barnyardgrass [9, 20]: 80 | Plant response rating, Blackgrass [10, 19]: 30 | Plant response rating, Blackgrass [10, 20]: 20 | Plant response rating, Corn (corn (Zea mays); [19]): 20 | Plant response rating, Corn (corn (Zea mays); [20]): 0 | Plant response rating, Foxtail, Giant [11, 19]: 70 | Plant response rating, Foxtail, Giant [11, 20]: 50 | Plant response rating, Pigweed [12, 19]: 30 | Plant response rating, Pigweed [12, 20]: 20 | Plant response rating, Ragweed [13, 19]: 0 | Plant response rating, Ragweed [13, 20]: 0 | Plant response rating, Ryegrass, Italian [14, 19]: 40 | Plant response rating, Ryegrass, Italian [14, 20]: 20 | Plant response rating, Wheat [15, 19]: 20 | Plant response rating, Wheat [15, 20]: 0 | Plant response rating, Barnyardgrass [16]: 60 | Plant response rating, Ducksalad [17]: 100 | Plant response rating, Rice (rice (Oryra sativa)): 35 | Plant response rating, Sedge, Umbrella [18]: 0

— patent publication US12077503B2, “Substituted cyclic amides and their use as herbicides” (FMC CORPORATION, priority 2015, dated 2024)
